PubChem BioAssay AID256 (DTP/NCI, 2004)
Several values for one entry are separate records, joined by “and”; a condition that tells them apart may be missing. Identical values can stand only once. Inconclusive results and toxic doses are left out. Rule for the calls: active = survival T/C of 150% or more; inactive = T/C below 125% in these data. Non-standard residues stand in square brackets, D forms with d. Residues, ends and D or L forms follow the SMILES beside them. ξ: configuration not given here. *: point of attachment. Trt = c1ccc(C(c2ccccc2)(c2ccccc2)*)cc1; Cbz = O=C(OCc1ccccc1)*; OtBu = CC(C)(C)O*; ξC = NC(CS)C(=O)O

Tested on: CD2F1 mice, L1210 leukemia ip, survival T/C
Experiment: NCI In Vivo Anticancer Drug Screen. Data for tumor model L1210 Leukemia (intraperitoneal) in CD2F1 (CDF1) mice
Details: higher = longer survival
How it was run: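 Vehicle-treated tumor-bearing mice served as controls (C) for compound-treated mice (T). Reported figure is T divided by C.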

[1] = endpoint: mean survival time, dose: 25.0 mg/kg/injection, schedule: Q01DX009 (ip), vehicle: saline with Tween-80
[2] = endpoint: mean survival time, dose: 50.0 mg/kg/injection, schedule: Q01DX009 (ip), vehicle: saline with Tween-80
[3] = endpoint: mean survival time, dose: 100.0 mg/kg/injection, schedule: Q04DX003 (ip), vehicle: saline with Tween-80
[4] = endpoint: mean survival time, dose: 200.0 mg/kg/injection, schedule: Q04DX003 (ip), vehicle: saline with Tween-80
[5] = endpoint: mean survival time, dose: 400.0 mg/kg/injection, schedule: Q04DX003 (ip), vehicle: saline with Tween-80
[6] = endpoint: mean survival time, dose: 100.0 mg/kg/injection, schedule: Q01DX009 (ip), vehicle: saline with Tween-80
[7] = endpoint: mean survival time, dose: 200.0 mg/kg/injection, schedule: Q01DX009 (ip), vehicle: saline with Tween-80
[8] = endpoint: mean survival time, dose: 400.0 mg/kg/injection, schedule: Q01DX009 (ip), vehicle: saline with Tween-80
[9] = endpoint: mean survival time, dose: 100.0 mg/kg/injection, schedule: Q04DX003 (ip), vehicle: saline
[10] = endpoint: mean survival time, dose: 200.0 mg/kg/injection, schedule: Q04DX003 (ip), vehicle: saline
[11] = endpoint: mean survival time, dose: 400.0 mg/kg/injection, schedule: Q04DX003 (ip), vehicle: saline
[12] = endpoint: mean survival time, dose: 50.0 mg/kg/injection, schedule: Q04DX002 (ip), vehicle: saline with Tween-80
[13] = endpoint: mean survival time, dose: 100.0 mg/kg/injection, schedule: Q04DX002 (ip), vehicle: saline with Tween-80

Measured: T/C

C=CCc1nc2c(N)ncnc2n1C1OC(CO)C(O)C1O (stereo not drawn)
inactive: endpoint: median survival time, dose: 12.5 mg/kg/injection, schedule: Q01DX005 (ip), vehicle: water 105 % of control | endpoint: median survival time, dose: 25.0 mg/kg/injection, schedule: Q01DX005 (ip), vehicle: water 104 % of control | endpoint: median survival time, dose: 50.0 mg/kg/injection, schedule: Q01DX005 (ip), vehicle: water 102 % of control | endpoint: median survival time, dose: 100.0 mg/kg/injection, schedule: Q01DX005 (ip), vehicle: water 102 % of control | endpoint: median survival time, dose: 200.0 mg/kg/injection, schedule: Q01DX005 (ip), vehicle: water 104 % of control

CCCN(CCC)c1c([N+](=O)[O-])cc(C(N)=O)cc1[N+](=O)[O-]
inactive: endpoint: mean survival time, dose: 12.5 mg/kg/injection, schedule: Q01DX009 (ip), vehicle: saline with Tween-80 96 % of control | [1] 96 % of control | [2] 90 % of control

COC(=O)/C(=C\c1ccccc1Cl)C(C)=O
inactive: [3] 104 % of control | [4] 98 % of control | [5] 102 % of control

O=C(C1=CC=CC1=P(c1ccccc1)(c1ccccc1)c1ccccc1)C(Cl)(Cl)Cl
inactive: [6] 94 % of control | [7] 107 % of control | [8] 107 % of control

O=C1C=C(c2ccc(O)cc2)CO1
inactive: [3] 97 % of control | [4] 94 % of control | [5] 97 % of control

O=C1CN(CO)C(=O)N1CO
inactive: endpoint: median survival time, dose: 25.0 mg/kg/injection, schedule: Q01DX009 (ip), vehicle: Klucel (hydroxypropylcellulose) (HPC) 110 % of control | endpoint: median survival time, dose: 50.0 mg/kg/injection, schedule: Q01DX009 (ip), vehicle: Klucel (hydroxypropylcellulose) (HPC) 110 % of control | endpoint: median survival time, dose: 100.0 mg/kg/injection, schedule: Q01DX009 (ip), vehicle: Klucel (hydroxypropylcellulose) (HPC) 116 % of control | endpoint: median survival time, dose: 200.0 mg/kg/injection, schedule: Q01DX009 (ip), vehicle: Klucel (hydroxypropylcellulose) (HPC) 112 % of control | endpoint: median survival time, dose: 400.0 mg/kg/injection, schedule: Q01DX009 (ip), vehicle: Klucel (hydroxypropylcellulose) (HPC) 96 % of control

[Cl][Pt+2][Br].[NH-]CC[NH-]
inactive: endpoint: mean survival time, dose: 0.47 mg/kg/injection, schedule: Q01DX009 (ip), vehicle: saline with Tween-80 115 % of control | endpoint: mean survival time, dose: 0.95 mg/kg/injection, schedule: Q01DX009 (ip), vehicle: saline with Tween-80 105 % of control | endpoint: mean survival time, dose: 1.9 mg/kg/injection, schedule: Q01DX009 (ip), vehicle: saline with Tween-80 110 % of control | endpoint: mean survival time, dose: 3.8 mg/kg/injection, schedule: Q04DX003 (ip), vehicle: saline with Tween-80 101 % of control | endpoint: mean survival time, dose: 7.5 mg/kg/injection, schedule: Q01DX009 (ip), vehicle: saline with Tween-80 94 % of control | endpoint: mean survival time, dose: 7.5 mg/kg/injection, schedule: Q04DX003 (ip), vehicle: saline with Tween-80 121 % of control

C1CC2CCC3CCCC4CCC(C1)C2C34 (stereo not drawn)
inactive: [2] 98 % of control | [6] 98 % of control | [3] 98 % of control | [7] 100 % of control | [4] 102 % of control

CN(N)c1nc2c(=O)[nH]cnc2n1C1OC(CO)C(O)C1O (stereo not drawn)
inactive: endpoint: mean survival time, dose: 12.5 mg/kg/injection, schedule: Q01DX005 (ip), vehicle: water 104 % of control | endpoint: mean survival time, dose: 25.0 mg/kg/injection, schedule: Q01DX005 (ip), vehicle: water 101 % of control | endpoint: mean survival time, dose: 50.0 mg/kg/injection, schedule: Q01DX005 (ip), vehicle: water 95 % of control | endpoint: mean survival time, dose: 100.0 mg/kg/injection, schedule: Q01DX005 (ip), vehicle: water 103 % of control | endpoint: mean survival time, dose: 200.0 mg/kg/injection, schedule: Q01DX005 (ip), vehicle: water 95 % of control

CCC(c1ccc2cc(OC)ccc2c1)C(C(=O)O)C(=O)O (stereo not drawn)
inactive: endpoint: mean survival time, dose: 100.0 mg/kg/injection, schedule: Q04DX003 (ip), vehicle: Klucel (hydroxypropylcellulose) (HPC) 95 % of control | endpoint: mean survival time, dose: 200.0 mg/kg/injection, schedule: Q04DX003 (ip), vehicle: Klucel (hydroxypropylcellulose) (HPC) 93 % of control

N#CCCOCC(COCCC#N)OCCC#N
inactive: [1] 97 % of control and 103 % of control | [2] 98 % of control and 103 % of control | [6] 97 % of control and 110 % of control | [7] 89 % of control and 103 % of control

CCCCCCCCCCCSCCCCCCCCCCC
inactive: [6] 104 % of control | [3] 98 % of control | [7] 103 % of control | [4] 101 % of control | [8] 103 % of control | [5] 98 % of control

COC(=O)CC(=O)C1(C)CC1
inactive: [9] 90 % of control | [10] 93 % of control | [11] 96 % of control

COC1OC(COC(c2ccccc2)(c2ccccc2)c2ccccc2)C(O)C(O)C1O (stereo not drawn)
inactive: endpoint: mean survival time, dose: 100.0 mg/kg/injection, schedule: Q01DX001 (ip), vehicle: saline 100 % of control | [6] 106 % of control | endpoint: mean survival time, dose: 200.0 mg/kg/injection, schedule: Q01DX001 (ip), vehicle: saline 97 % of control | [7] 96 % of control | endpoint: mean survival time, dose: 400.0 mg/kg/injection, schedule: Q01DX001 (ip), vehicle: saline 92 % of control | [8] 98 % of control

NC(=O)NC(=O)c1cccc([N+](=O)[O-])c1
inactive: [6] 104 % of control | [3] 97 % of control | [7] 97 % of control | [4] 94 % of control

O=C(c1ccccc1)N(C(=O)c1ccccc1)c1cccc[n+]1[O-]
inactive: [3] 100 % of control | [4] 97 % of control | [5] 102 % of control

Nc1cccc2cnccc12
inactive: [6] 100 % of control | [3] 91 % of control | [7] 98 % of control | [4] 93 % of control | [5] 96 % of control

Nc1cncc([N+](=O)[O-])c1N
inactive: endpoint: mean survival time, dose: 100.0 mg/kg/injection, schedule: Q01DX001 (ip), vehicle: saline with Tween-80 98 % of control | endpoint: mean survival time, dose: 200.0 mg/kg/injection, schedule: Q01DX001 (ip), vehicle: saline with Tween-80 101 % of control | endpoint: mean survival time, dose: 400.0 mg/kg/injection, schedule: Q01DX001 (ip), vehicle: saline with Tween-80 101 % of control

Cc1ccc(Sc2ncnc3c2ncn3C2OC(CO)C(O)C2O)cc1 (stereo not drawn)
inactive: endpoint: mean survival time, dose: 12.5 mg/kg/injection, schedule: Q01DX005 (ip), vehicle: distilled water + Tween-80 96 % of control | endpoint: mean survival time, dose: 25.0 mg/kg/injection, schedule: Q01DX005 (ip), vehicle: distilled water + Tween-80 90 % of control | endpoint: mean survival time, dose: 50.0 mg/kg/injection, schedule: Q01DX005 (ip), vehicle: distilled water + Tween-80 94 % of control | endpoint: mean survival time, dose: 100.0 mg/kg/injection, schedule: Q01DX005 (ip), vehicle: distilled water + Tween-80 90 % of control | endpoint: mean survival time, dose: 200.0 mg/kg/injection, schedule: Q01DX005 (ip), vehicle: distilled water + Tween-80 94 % of control

CC(C)(C)OC(=O)CNC(=O)CNC(=O)CNC(=O)C(CSC(c1ccccc1)(c1ccccc1)c1ccccc1)NC(=O)OCc1ccccc1 (stereo not drawn) (Cbz-[ξC](Trt)GGG-OtBu)
inactive: [3] 101 % of control | [4] 95 % of control | [5] 92 % of control

NNc1ccnc2[nH]ncc12
inactive: endpoint: mean survival time, dose: 6.25 mg/kg/injection, schedule: Q01DX005 (ip), vehicle: saline with Tween-80 106 % of control | endpoint: mean survival time, dose: 12.5 mg/kg/injection, schedule: Q01DX005 (ip), vehicle: saline with Tween-80 103 % of control | endpoint: mean survival time, dose: 25.0 mg/kg/injection, schedule: Q01DX005 (ip), vehicle: saline with Tween-80 101 % of control

[N-]=[N+]=NC1CC(n2ccc(=O)[nH]c2=O)OC1CO (stereo not drawn)
inactive: endpoint: median survival time, dose: 12.5 mg/kg/injection, schedule: Q01DX005 (ip), vehicle: saline 101 % of control | endpoint: median survival time, dose: 25.0 mg/kg/injection, schedule: Q01DX005 (ip), vehicle: saline 102 % of control | endpoint: median survival time, dose: 50.0 mg/kg/injection, schedule: Q01DX005 (ip), vehicle: saline 100 % of control | endpoint: median survival time, dose: 100.0 mg/kg/injection, schedule: Q01DX005 (ip), vehicle: saline 94 % of control | endpoint: median survival time, dose: 200.0 mg/kg/injection, schedule: Q01DX005 (ip), vehicle: saline 100 % of control

CCC(CC)(CC)CCS(=O)[O-].[C-]#[O+].[C-]#[O+].[Fe+6].[c-]1[c-][c-][cH-][c-]1
inactive: [12] 93 % of control | [13] 93 % of control | endpoint: mean survival time, dose: 200.0 mg/kg/injection, schedule: Q04DX002 (ip), vehicle: saline with Tween-80 104 % of control

CC(=O)NC1=NC(=O)/C(=C/Cc2cccs2)N1C
inactive: [6] 101 % of control | [7] 108 % of control

CC1CCS(=O)(=O)CC1.[Cl][Hg][Cl]
inactive: endpoint: mean survival time, dose: 0.62 mg/kg/injection, schedule: Q04DX003 (ip), vehicle: saline 104 % of control | endpoint: mean survival time, dose: 1.25 mg/kg/injection, schedule: Q04DX003 (ip), vehicle: saline 106 % of control

O=C(O)C(CCc1ccccc1)N1CCOCC1 (stereo not drawn)
inactive: [9] 98 % of control | [10] 98 % of control | [11] 101 % of control

CS(=O)(=O)N1C(=O)c2ccccc2C1=O
inactive: endpoint: mean survival time, dose: 25.0 mg/kg/injection, schedule: Q04DX002 (ip), vehicle: saline with Tween-80 101 % of control | [12] 98 % of control | [13] 93 % of control
